Our source for the tumors values is patent publication US20250134855A1, “CO[…] AND METHODS OF USING SAME” (LYKOS THERAPEUTICS, INC., priority 2022, published 2025).

The data set deals with dogs. The data set can be described thus: Daily 28-day repeated dose toxicology study, dogs. Conditions: 0, 3, 9, or 15 mg/kg/day, daily 28 days. The format is in vivo, dog. The procedure:
Based on negative in vivo and in vitro genotoxicity studies, the carcinogenic risk of MDMA·HCl is low. No tumors were reported after daily 28-day repeated dose toxicology studies of MDMA in rats (0, 10, 50, or 100 mg/kg/day) or dogs (0, 3, 9, or 15 mg/kg/day).

Turning to `CNC(C)Cc1ccc2c(c1)OCO2` (stereo not shown) [MDMA, 3,4-methylenedioxymethamphetamine], the tumors result is reported as “No tumors”.
